{"source": "paper PMC4128046", "about": "“Effect of a toggle switch mutation in TM6 of the human adenosine A3 receptor on Gi protein-dependent signalling and Gi-independent receptor internalization” (British Journal of Pharmacology, 2014)", "target": "T1, A3 W243F-YFP (Homo sapiens, UniProt P0DMS8, W243F)", "T1 construct": "Full length A3 W243F-YFP was excised and subcloned into a native pcDNA3.1 vector; expressed in transfected cells", "T1 sequence (P0DMS8 1-318 W243F)": "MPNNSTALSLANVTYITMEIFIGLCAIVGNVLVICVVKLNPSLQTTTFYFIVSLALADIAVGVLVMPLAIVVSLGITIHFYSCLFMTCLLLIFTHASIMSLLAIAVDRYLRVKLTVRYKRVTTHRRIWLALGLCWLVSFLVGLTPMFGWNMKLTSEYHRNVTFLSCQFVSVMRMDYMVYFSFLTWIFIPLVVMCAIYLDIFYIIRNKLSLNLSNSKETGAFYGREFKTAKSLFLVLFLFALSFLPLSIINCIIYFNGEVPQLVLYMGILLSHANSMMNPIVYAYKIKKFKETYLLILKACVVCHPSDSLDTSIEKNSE", "experiment": "ERK1/2 phosphorylation assay (AlphaScreen SureFire), A3 W243F-YFP", "format": "cell-based", "procedure": "Normal growth medium was replaced with serum-free medium for at least 4 h before analysis. Levels of ERK1/2 phosphorylation were measured using the AlphaScreen SureFire p-ERK assay kit (PerkinElmer). […] Medium was removed from each well and replaced with 40 μL SureFire lysis buffer. After shaking for 5 min, a 1:80:20:120 v v^−1 dilution of AlphaScreen beads : lysate : activation buffer : reaction buffer in a 5.5 μL total volume was transferred to a white opaque 384-well proxiplate in diminished light. After 2 h of incubation in the dark at room temperature, the fluorescence signal was measured with an EnVision plate reader (PerkinElmer) using standard AlphaScreen settings.\nA basal and FSK control was included in each separate concentration-response CRE-SPAP gene transcription assay and cAMP accumulation assay to allow the responses in each cell line to be expressed as an inhibition of FSK-stimulated SPAP production.", "data": [{"smiles": "CCCCC#Cc1nc(NC)c2ncn([C@@H]3O[C@H](CO)[C@@H](O)[C@H]3O)c2n1", "note": "[HEMADO, 2-(1-hexynyl)-N-methyladenosine]", "values": [{"measurement": "EC50", "setting": "A3 W243F-YFP cells, 5 min stimulation, read-out: pEC50 (pERK1/2 assay) (converted)", "result": 19.5, "unit": "nM"}, {"measurement": "Emax", "setting": "read-out: Maximum response (% 10 μM NECA), pERK1/2 assay", "result": "16 ± 3.1", "unit": "%"}]}]}
